What all share (assay): E. coli hemG growth inhibition by herbicide, AtPPO1 variant
What all share (assay type): cell-based
Common to all, as to conditions: read-out: percentage growth inhibition

For one experiment, the target named is T1, AtPPO1 L464Y (Arabidopsis thaliana, UniProt P55826, L464Y).
T1 construct: expressed in transfected cells; host or cells: E. coli BL21(DE3) hemG, pET24a plasmid
T1 sequence (P55826 35-537 L464Y): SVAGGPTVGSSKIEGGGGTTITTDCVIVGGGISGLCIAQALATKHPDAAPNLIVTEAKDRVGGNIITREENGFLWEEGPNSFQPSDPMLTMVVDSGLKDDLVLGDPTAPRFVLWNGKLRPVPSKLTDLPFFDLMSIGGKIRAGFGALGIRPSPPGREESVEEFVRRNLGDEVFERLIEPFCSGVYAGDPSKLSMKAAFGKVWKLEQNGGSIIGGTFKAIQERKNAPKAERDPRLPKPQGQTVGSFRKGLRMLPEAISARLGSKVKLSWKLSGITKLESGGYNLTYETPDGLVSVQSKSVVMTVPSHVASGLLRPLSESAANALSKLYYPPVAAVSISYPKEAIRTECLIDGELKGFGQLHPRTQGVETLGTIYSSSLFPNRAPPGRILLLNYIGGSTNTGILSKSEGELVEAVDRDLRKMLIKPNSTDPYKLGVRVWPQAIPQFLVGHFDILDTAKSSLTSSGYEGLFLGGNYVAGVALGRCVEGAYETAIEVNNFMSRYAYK
An outline of the steps: (§1)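 Read-out is OD600 at 24 h post inoculation, converted to percent growth inhibition relative to DMSO. The hemG-deleted BL21(DE3) host relied on the plasmid-borne AtPPO1 variant, induced with 0.1 mM IPTG, with 6.25 ppm herbicide 0 or E or 0.78 ppm herbicide B present at 37° C.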

In a further experiment the target is T2, AtPPO1 V511L (Arabidopsis thaliana, UniProt P55826, V511L).
T2 construct: expressed in transfected cells; host or cells: E. coli BL21(DE3) hemG, pET24a plasmid
T2 sequence (P55826 35-537 V511L): T1 sequence (P55826 35-537 L464Y) with Y430L, V477L
The essentials:
as §1

The target of the next experiment is T3, AtPPO1 Y426T (Arabidopsis thaliana, UniProt P55826, Y426T).
T3 construct: expressed in transfected cells; host or cells: E. coli BL21(DE3) hemG (pET24a, T7 promoter)
T3 sequence (P55826 35-537 Y426T): T1 sequence (P55826 35-537 L464Y) with Y392T, Y430L
The essentials: as §1

For the next experiment, the target named is T4, AtPPO1 P271C (Arabidopsis thaliana, UniProt P55826, P271C).
T4 construct: expressed in transfected cells; host or cells: E. coli BL21(DE3) hemG (hemG replaced by CmR), pET24a plasmid
T4 sequence (P55826 35-537 P271C): T1 sequence (P55826 35-537 L464Y) with P237C, Y430L
An outline of the steps:
as §1

Positions count from the first letter of the chain named.

What is called inhibition is the change of the read-out against control, counted positive when it falls.

For `C#CCN1C(=O)C(F)(F)Oc2cc(F)c(-n3c(=O)n(C)c(=S)n(C)c3=O)cc21` [Herbicide B, trifludimoxazin], the inhibition at 0.78 ppm on AtPPO1 L464Y worked out at 0%; on AtPPO1 V511L, 18%; at AtPPO1 Y426T, 8%; on AtPPO1 P271C it was 24%.
As to `CCOC(=O)[C@]1(C)CC(c2cc(-n3c(=O)n(C)c(=S)n(C)c3=O)c(F)cc2Cl)=NO1` [Herbicide D, ethyl (5S)-3-[2-chloro-5-(3,5-dimethyl-2,6-dioxo-4-thioxo-1,3,5-triazinan-1-yl)-4-fluoro-phenyl]-5-methyl-4H-isoxazole-5-carboxylate], the inhibition at 6.25 ppm at AtPPO1 L464Y is 12%; at AtPPO1 V511L, 18%; at AtPPO1 Y426T it was 12%; on AtPPO1 P271C, 24%.
Regarding `CC(C)N(C)S(=O)(=O)NC(=O)c1cc(-n2c(=O)cc(C(F)(F)F)n(C)c2=O)c(F)cc1Cl` [Herbicide E, saflufenacil], the inhibition at 6.25 ppm is 5% at AtPPO1 L464Y, 46% on AtPPO1 V511L, 11% on AtPPO1 Y426T and 66% at AtPPO1 P271C.

Source of the values: patent publication US20260297542A1, “HERBICIDE RESISTANT PLANTS” (SYNGENTA CROP PROTECTION AG, priority 2023, published 2026).
